# Legend:
# [1] = target: recombinant rat α1β3γ2 receptors (Rattus norvegicus, UniProt P18508+P62813); assay: Two-electrode voltage clamp of GABA-induced chloride currents in Xenopus oocytes; type: cell-based; conditions: for efficacy (% GABA EC3): α1β3γ2, ns = not significant
# [2] = target: recombinant rat α1β3γ2F77I receptors (Rattus norvegicus, UniProt P18508+P62813, F115I); assay: as above; type: cell-based; conditions: α1β3γ2F77I, ns = not significant
# [3] = target: recombinant rat α2β3γ2 receptors (Rattus norvegicus, UniProt P18508+P23576); assay: as above; type: cell-based; conditions: for efficacy (% GABA EC3): α2β3γ2, ns = not significant
# [4] = target: recombinant rat α2β3γ2F77I receptors (Rattus norvegicus, UniProt P18508+P23576, F115I); assay: as above; type: cell-based; conditions: α2β3γ2F77I, ns = not significant
# [5] = target: recombinant rat α3β3γ2 receptors (Rattus norvegicus, UniProt P18508+P20236); assay: as above; type: cell-based; conditions: for efficacy (% GABA EC3): α3β3γ2, ns = not significant
# recombinant rat α3β3γ2 receptors, sequence (P20236 29-493): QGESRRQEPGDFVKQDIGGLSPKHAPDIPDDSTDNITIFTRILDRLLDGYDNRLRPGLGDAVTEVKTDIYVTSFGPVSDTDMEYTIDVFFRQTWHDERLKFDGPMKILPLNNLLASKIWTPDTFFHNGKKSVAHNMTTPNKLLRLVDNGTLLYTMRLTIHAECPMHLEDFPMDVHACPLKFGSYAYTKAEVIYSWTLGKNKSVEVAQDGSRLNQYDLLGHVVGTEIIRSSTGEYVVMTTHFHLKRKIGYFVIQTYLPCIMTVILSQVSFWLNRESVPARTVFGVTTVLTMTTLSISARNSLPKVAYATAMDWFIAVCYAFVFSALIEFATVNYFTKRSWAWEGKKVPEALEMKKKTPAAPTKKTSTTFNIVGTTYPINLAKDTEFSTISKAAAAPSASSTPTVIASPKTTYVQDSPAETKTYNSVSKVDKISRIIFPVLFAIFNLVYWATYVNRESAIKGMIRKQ
# recombinant rat α3β3γ2 receptors, sequence (P63079 26-473 partner): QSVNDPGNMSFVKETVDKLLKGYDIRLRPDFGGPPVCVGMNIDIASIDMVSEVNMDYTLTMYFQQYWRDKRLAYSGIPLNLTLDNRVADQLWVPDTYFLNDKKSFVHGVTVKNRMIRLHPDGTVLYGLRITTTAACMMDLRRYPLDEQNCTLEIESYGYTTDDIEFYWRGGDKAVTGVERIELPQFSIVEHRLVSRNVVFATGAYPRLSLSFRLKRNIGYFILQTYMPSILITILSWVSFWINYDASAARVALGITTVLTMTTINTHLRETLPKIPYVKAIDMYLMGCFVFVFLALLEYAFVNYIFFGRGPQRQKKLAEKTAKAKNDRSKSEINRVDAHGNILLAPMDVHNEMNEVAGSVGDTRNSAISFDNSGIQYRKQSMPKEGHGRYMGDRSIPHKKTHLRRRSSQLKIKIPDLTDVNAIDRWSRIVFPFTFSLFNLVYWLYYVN
# recombinant rat α3β3γ2 receptors, sequence (P18508 39-466): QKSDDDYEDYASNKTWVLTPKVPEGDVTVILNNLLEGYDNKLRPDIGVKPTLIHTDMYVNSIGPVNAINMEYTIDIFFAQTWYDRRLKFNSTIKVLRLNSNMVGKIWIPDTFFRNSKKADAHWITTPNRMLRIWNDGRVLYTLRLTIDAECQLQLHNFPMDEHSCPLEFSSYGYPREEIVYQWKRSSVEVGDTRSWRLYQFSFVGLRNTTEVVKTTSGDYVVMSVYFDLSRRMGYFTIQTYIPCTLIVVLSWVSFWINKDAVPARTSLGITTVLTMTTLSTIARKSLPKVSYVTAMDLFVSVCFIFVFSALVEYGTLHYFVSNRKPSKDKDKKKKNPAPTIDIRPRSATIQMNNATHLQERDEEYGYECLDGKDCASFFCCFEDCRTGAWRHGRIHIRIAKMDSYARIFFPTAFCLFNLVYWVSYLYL
# [6] = target: recombinant rat α3β3γ2F77I receptors (Rattus norvegicus, UniProt P18508+P20236, F115I); assay: as above; type: cell-based; conditions: α3β3γ2F77I, ns = not significant
# recombinant rat α3β3γ2F77I receptors, sequence (P20236 29-493): as the sequence (P20236 29-493) above
# recombinant rat α3β3γ2F77I receptors, sequence (P63079 26-473 partner): as the sequence (P63079 26-473 partner) above
# recombinant rat α3β3γ2F77I receptors, sequence (P18508 39-466 F115I): as the sequence (P18508 39-466) above, with F77I counted along it
# [7] = target: recombinant rat α4β3γ2 receptors (Rattus norvegicus, UniProt P18508+P28471); assay: as above; type: cell-based; conditions: for efficacy (% GABA EC3): ns = not significant
# [8] = target: recombinant rat α5β3γ2 receptors (Rattus norvegicus, UniProt P18508+P19969); assay: as above; type: cell-based; conditions: for efficacy (% GABA EC3): α5β3γ2, ns = not significant
# [9] = target: recombinant rat α5β3γ2F77I receptors (Rattus norvegicus, UniProt P18508+P19969, F115I); assay: as above; type: cell-based; conditions: for efficacy (% GABA EC3): α5β3γ2F77I, ns = not significant
# [10] = target: recombinant rat α6β3γ2 receptors (Rattus norvegicus, UniProt P18508+P30191); assay: as above; type: cell-based; conditions: for efficacy (% GABA EC3): ns = not significant
# recombinant rat α6β3γ2 receptors, sequence (P30191 20-453): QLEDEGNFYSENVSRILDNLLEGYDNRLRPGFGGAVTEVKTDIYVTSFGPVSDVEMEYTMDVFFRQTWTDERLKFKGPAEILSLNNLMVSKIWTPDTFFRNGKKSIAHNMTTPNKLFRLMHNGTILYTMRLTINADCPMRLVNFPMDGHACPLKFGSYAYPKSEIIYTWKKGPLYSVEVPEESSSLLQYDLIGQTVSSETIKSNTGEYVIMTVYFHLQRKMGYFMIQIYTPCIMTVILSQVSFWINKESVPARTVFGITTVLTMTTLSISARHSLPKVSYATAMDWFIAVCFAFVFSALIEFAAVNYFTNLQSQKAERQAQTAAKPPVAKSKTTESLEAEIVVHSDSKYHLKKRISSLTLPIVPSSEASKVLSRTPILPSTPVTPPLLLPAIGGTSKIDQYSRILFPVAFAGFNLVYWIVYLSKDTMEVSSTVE
# recombinant rat α6β3γ2 receptors, sequence (P63079 26-473 partner): as the sequence (P63079 26-473 partner) above
# recombinant rat α6β3γ2 receptors, sequence (P18508 39-466): as the sequence (P18508 39-466) above
# [11] = system: GABAA receptors containing the γ2F77I mutation; assay: Modulation of GABA EC3 in receptors containing the γ2F77I mutation; type: cell-based, rat; conditions: for stimulation of GABA-induced chloride flux: 10 μM, some γ2F77I receptors
# [12] = system: GABAA receptors of mice containing the point mutation γ2F77I; conditions: receptor binding; ref Ogris et al., 2004; cited from earlier work
# [13] = target: recombinant rat α4β3γ2F77I receptors (Rattus norvegicus, UniProt P18508+P28471, F115I); assay: Two-electrode voltage clamp of GABA-induced chloride currents in Xenopus oocytes; type: cell-based; conditions: ns = not significant
# [14] = target: recombinant rat α6β3γ2F77I receptors (Rattus norvegicus, UniProt P18508+P30191, F115I); assay: as above; type: cell-based; conditions: ns = not significant
structure (smiles),measurement,setting,value
"CN1CCN(C(=O)OC2c3nccnc3C(=O)N2c2ccc(Cl)cn2)CC1 (stereo not drawn) [Zopiclone, 4-methyl-1-piperazinecarboxylic acid-6-(5-chloro-2-pyridinyl)-6,7-dihydro-7-oxo-5H-pyrrolo[3,4-b]pyrazin-5-yl ester]",EC50,[1],163 ± 19 nM
same,efficacy (% GABA EC3),[1]; 100 nM,211 ± 17 % GABA EC3
same,efficacy (% GABA EC3),[1]; 1 μM,347 ± 35 % GABA EC3
same,efficacy (% GABA EC3),[1]; 10 μM,383 ± 36 % GABA EC3
same,efficacy (% GABA EC3),[2]; 100 nM,ns
same,efficacy (% GABA EC3),[2]; 1 μM,ns
same,efficacy (% GABA EC3),[2]; 10 μM,125 ± 3 % GABA EC3
same,EC50,[3],400 ± 64 nM
same,efficacy (% GABA EC3),[3]; 100 nM,157 ± 9 % GABA EC3
same,efficacy (% GABA EC3),[3]; 1 μM,289 ± 16 % GABA EC3
same,efficacy (% GABA EC3),[3]; 10 μM,356 ± 22 % GABA EC3
same,efficacy (% GABA EC3),[4]; 100 nM,ns
same,efficacy (% GABA EC3),[4]; 1 μM,ns
same,efficacy (% GABA EC3),[4]; 10 μM,121 ± 2 % GABA EC3
same,EC50,[5],> 793 nM
same,efficacy (% GABA EC3),[5]; 100 nM,161 ± 10 % GABA EC3
same,efficacy (% GABA EC3),[5]; 1 μM,377 ± 24 % GABA EC3
same,efficacy (% GABA EC3),[5]; 10 μM,559 ± 30 % GABA EC3
same,efficacy (% GABA EC3),[6]; 100 nM,ns
same,efficacy (% GABA EC3),[6]; 1 μM,107 ± 1 % GABA EC3
same,efficacy (% GABA EC3),[6]; 10 μM,119 ± 4 % GABA EC3
same,efficacy (% GABA EC3),"[7]; 1 μM, α4β3γ2",ns
same,efficacy (% GABA EC3),"[7]; 10 μM, α4β3γ2",ns
same,efficacy (% GABA EC3),"[7]; 10 μM, α4β3γ2, listed as zopiclone",did not significantly stimulate
same,EC50,[8],176 ± 1 nM
same,efficacy (% GABA EC3),[8]; 100 nM,191 ± 8 % GABA EC3
same,efficacy (% GABA EC3),[8]; 1 μM,313 ± 18 % GABA EC3
same,efficacy (% GABA EC3),[8]; 10 μM,345 ± 22 % GABA EC3
same,efficacy (% GABA EC3),[9]; 100 nM,ns
same,efficacy (% GABA EC3),[9]; 1 μM,114 ± 2 % GABA EC3
same,efficacy (% GABA EC3),[9]; 10 μM,144 ± 1 % GABA EC3
same,efficacy (% GABA EC3),"[10]; 1 μM, α6β3γ2",ns
same,efficacy (% GABA EC3),"[10]; 10 μM, α6β3γ2",ns
same,efficacy (% GABA EC3),"[10]; 10 μM, α6β3γ2, listed as zopiclone",did not significantly stimulate
same,stimulation of GABA-induced chloride flux,[11],20–40%
same,shift in affinity caused by γ2F77I,[12],~100 fold
"Cc1ccc(-c2nc3ccc(C)cn3c2CC(=O)N(C)C)cc1 [Zolpidem, N,N,6-trimethyl-2-(4-methylphenyl)imidazo[1,2-a]-pyridine-3-acetamide]",efficacy (% GABA EC3),[2]; 100 nM,ns
same,efficacy (% GABA EC3),[2]; 1 μM,ns
same,efficacy (% GABA EC3),[2]; 10 μM,142 ± 8 % GABA EC3
same,efficacy (% GABA EC3),[4]; 100 nM,ns
same,efficacy (% GABA EC3),[4]; 1 μM,ns
same,efficacy (% GABA EC3),[4]; 10 μM,145 ± 3 % GABA EC3
same,efficacy (% GABA EC3),[6]; 100 nM,ns
same,efficacy (% GABA EC3),[6]; 1 μM,ns
same,efficacy (% GABA EC3),[6]; 10 μM,145 ± 5 % GABA EC3
same,efficacy (% GABA EC3),"[7]; 100 nM, α4β3γ2",ns
same,efficacy (% GABA EC3),"[7]; 1 μM, α4β3γ2",ns
same,efficacy (% GABA EC3),"[7]; 10 μM, α4β3γ2",ns
same,"maximal effect on GABA-induced chloride flux (GABA EC3), % of control current","[7]; α4β3γ2, control current = 100%",did not significantly enhance
same,efficacy (% GABA EC3),[8]; 100 nM,ns
same,efficacy (% GABA EC3),[8]; 1 μM,ns
same,efficacy (% GABA EC3),[8]; 10 μM,ns
same,efficacy (% GABA EC3),"[8]; 10 μM, listed as zolpidem",unable to modulate
same,efficacy (% GABA EC3),[9]; 100 nM,ns
same,efficacy (% GABA EC3),[9]; 1 μM,ns
same,efficacy (% GABA EC3),"[10]; 10 μM, α6β3γ2",ns
same,"maximal effect on GABA-induced chloride flux (GABA EC3), % of control current","[10]; α6β3γ2, control current = 100%",did not significantly enhance
same,stimulation of GABA-induced chloride flux,[11],20–40%
same,shift in affinity caused by γ2F77I,[12],approximately 300 fold
"CC(C)(C)OC(=O)c1ncn2c1[C@@H]1CCCN1C(=O)c1c(Br)cccc1-2 [Bretazenil, t-butyl(s)-8-bromo-11,12,13,13a-tetrahydro-9-oxo-9H-imidazo[1,5-a] pyrrolo[2,1-c][1,4]benzodiazepine-1-carboxylate]",EC50,[1],4 ± 1 nM
same,efficacy (% GABA EC3),[1]; 10 nM,126 ± 5 % GABA EC3
same,efficacy (% GABA EC3),[1]; 100 nM,134 ± 7 % GABA EC3
same,efficacy (% GABA EC3),[1]; 1 μM,136 ± 9 % GABA EC3
same,efficacy (% GABA EC3),[1]; 10 μM,138 ± 10 % GABA EC3
same,efficacy (% GABA EC3),[2]; 10 nM,ns
same,efficacy (% GABA EC3),[2]; 100 nM,120 ± 6 % GABA EC3
same,efficacy (% GABA EC3),[2]; 1 μM,149 ± 12 % GABA EC3
same,efficacy (% GABA EC3),[2]; 10 μM,164 ± 21 % GABA EC3
same,EC50,[3],7 ± 1 nM
same,efficacy (% GABA EC3),[3]; 10 nM,119 ± 4 % GABA EC3
same,efficacy (% GABA EC3),[3]; 100 nM,128 ± 5 % GABA EC3
same,efficacy (% GABA EC3),[3]; 1 μM,130 ± 7 % GABA EC3
same,efficacy (% GABA EC3),[3]; 10 μM,129 ± 10 % GABA EC3
same,efficacy (% GABA EC3),[4]; 10 nM,ns
same,efficacy (% GABA EC3),[4]; 1 μM,125 ± 3 % GABA EC3
same,efficacy (% GABA EC3),[4]; 10 μM,179 ± 8 % GABA EC3
same,EC50,[5],15 ± 2 nM
same,efficacy (% GABA EC3),[5]; 10 nM,154 ± 6 % GABA EC3
same,efficacy (% GABA EC3),[5]; 100 nM,213 ± 11 % GABA EC3
same,efficacy (% GABA EC3),[5]; 1 μM,224 ± 14 % GABA EC3
same,efficacy (% GABA EC3),[5]; 10 μM,234 ± 17 % GABA EC3
same,efficacy (% GABA EC3),[6]; 10 nM,ns
same,efficacy (% GABA EC3),[6]; 100 nM,117 ± 3 % GABA EC3
same,efficacy (% GABA EC3),[6]; 1 μM,143 ± 7 % GABA EC3
same,efficacy (% GABA EC3),[6]; 10 μM,238 ± 15 % GABA EC3
same,EC50,[7],> 354 nM
same,efficacy (% GABA EC3),"[7]; 10 nM, α4β3γ2",ns
same,efficacy (% GABA EC3),"[7]; 100 nM, α4β3γ2",156 ± 11 % GABA EC3
same,efficacy (% GABA EC3),"[7]; 1 μM, α4β3γ2",332 ± 23 % GABA EC3
same,efficacy (% GABA EC3),"[7]; 10 μM, α4β3γ2",395 ± 8 % GABA EC3
same,efficacy (% GABA EC3),[13]; 10 nM,ns
same,efficacy (% GABA EC3),[13]; 100 nM,ns
same,efficacy (% GABA EC3),[13]; 1 μM,ns
same,efficacy (% GABA EC3),[13]; 10 μM,ns
same,EC50,[8],9 ± 2 nM
same,efficacy (% GABA EC3),[8]; 10 nM,168 ± 13 % GABA EC3
same,efficacy (% GABA EC3),[8]; 100 nM,205 ± 17 % GABA EC3
same,efficacy (% GABA EC3),[8]; 1 μM,216 ± 22 % GABA EC3
same,efficacy (% GABA EC3),[8]; 10 μM,228 ± 23 % GABA EC3
same,EC50,[9],> 748 nM
same,efficacy (% GABA EC3),[9]; 10 nM,ns
same,efficacy (% GABA EC3),[9]; 100 nM,124 ± 3 % GABA EC3
same,efficacy (% GABA EC3),[9]; 1 μM,193 ± 8 % GABA EC3
same,efficacy (% GABA EC3),[9]; 10 μM,249 ± 11 % GABA EC3
same,EC50,[10],> 322 nM
same,efficacy (% GABA EC3),"[10]; 10 nM, α6β3γ2",ns
same,efficacy (% GABA EC3),"[10]; 100 nM, α6β3γ2",ns
same,efficacy (% GABA EC3),"[10]; 1 μM, α6β3γ2",202 ± 12 % GABA EC3
same,efficacy (% GABA EC3),"[10]; 10 μM, α6β3γ2",231 ± 13 % GABA EC3
same,efficacy (% GABA EC3),[14]; 10 nM,ns
same,efficacy (% GABA EC3),[14]; 100 nM,ns
same,efficacy (% GABA EC3),[14]; 1 μM,ns
same,efficacy (% GABA EC3),[14]; 10 μM,ns
same,activity in the mutated receptors,[11]; up to 100 nM,inactive

# Source: paper PMC7615656 (European journal of pharmacology, 2010)
